Measurements as given in ChEMBL document CHEMBL1201862, “PubChem BioAssay data set” (2004).
Calls of active or inactive are those of the source.

Key:
[1] = molecular target: T1, Polyadenylate-binding protein 1 (Homo sapiens, UniProt P11940); assay: MLLE domain peptide-binding blockers, IC50 – biochemical, fluorescence polarization, FITC-PAM2 peptide, dose response (AID 602259); format: functional; conditions: read-out: IC50_Mean
[2] = molecular target: T1, Polyadenylate-binding protein 1; assay: MLLE binding blockers, Cy5 peptide tracer – biochemical, fluorescence polarization, Cy5-PAM2 peptide, secondary, miRNA deadenylation inhibitor project, dose response (AID 602260); format: functional; conditions: read-out: IC50_Mean
[3] = non-specific 3'UTR reporter inhibition in Clone20-Shn3RL – cell-based, Renilla luciferase, cherry-picked, counter-screen for Shn3 inhibitor project, dose response (AID 624133); format: functional
[4] = reduction of Shn3 3'UTR-driven luciferase in osteoblasts – cell-based, Clone20 osteoblasts, firefly luciferase, cherry-picked, dose response (AID 624132); format: functional;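 also: firefly luciferase luminescence from reporter carrying the Shn3 3'UTR in osteoblasts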
[5] = Luminescence Cell-Based Dose Confirmation HTS to Identify Inhibitors of Platelet Dense Granule Release. [Related pubchem assays: 1663 (Primary HTS), 1678 (Summary of Project)]; format: functional
[6] = molecular target: Luciferin 4-monooxygenase (Photinus pyralis, UniProt P08659); assay: inhibition of purified Photinus pyralis luciferase – biochemical, luminescence, dose response (AID 1891)
Sequence of Luciferin 4-monooxygenase (P08659 whole entry): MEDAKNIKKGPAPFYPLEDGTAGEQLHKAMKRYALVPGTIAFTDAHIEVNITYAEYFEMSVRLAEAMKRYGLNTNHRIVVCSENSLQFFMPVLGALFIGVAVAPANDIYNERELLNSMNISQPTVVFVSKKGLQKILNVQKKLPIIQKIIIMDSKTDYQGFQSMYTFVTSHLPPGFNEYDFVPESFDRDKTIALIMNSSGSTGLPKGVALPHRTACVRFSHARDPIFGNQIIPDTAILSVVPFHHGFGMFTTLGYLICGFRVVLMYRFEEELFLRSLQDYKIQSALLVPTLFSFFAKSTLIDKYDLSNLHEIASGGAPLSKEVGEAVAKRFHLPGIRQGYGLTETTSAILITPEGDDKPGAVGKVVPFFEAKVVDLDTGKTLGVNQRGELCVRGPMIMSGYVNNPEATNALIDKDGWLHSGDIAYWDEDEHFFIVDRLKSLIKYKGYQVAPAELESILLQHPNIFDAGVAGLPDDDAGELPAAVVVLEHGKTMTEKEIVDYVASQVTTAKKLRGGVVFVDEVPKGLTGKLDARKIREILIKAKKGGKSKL

HEK293 = assay: EBV LMP1 TES2 canonical NF-kB signalling blockers – cell-based, HEK293, luciferase, cherry-pick, dose response (AID 588343); format: functional; conditions: Homo sapiens
cells [7] = format: functional, cell-based
cells [8] = format: functional, cell-based; remark: listed apart in the source
[9] = molecular target: T2, RNA-binding protein pos-1 (Caenorhabditis elegans, UniProt G5EF15); assay: disruptors of C. elegans POS-1 RNA interaction – biochemical, fluorescence polarization, dose response (AID 1964);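 also: purified POS-1 fused to maltose binding protein made in E. coli; potency of compounds blocking POS-1 binding to fluorescent RNA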
T2 sequence (G5EF15 whole entry): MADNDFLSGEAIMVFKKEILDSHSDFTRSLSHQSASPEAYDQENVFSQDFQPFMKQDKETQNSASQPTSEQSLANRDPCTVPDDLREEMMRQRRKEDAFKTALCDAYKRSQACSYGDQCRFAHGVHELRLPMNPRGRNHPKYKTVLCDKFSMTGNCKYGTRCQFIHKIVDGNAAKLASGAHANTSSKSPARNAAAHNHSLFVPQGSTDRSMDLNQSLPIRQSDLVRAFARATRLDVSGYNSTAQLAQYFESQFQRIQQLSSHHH

[10] = molecular target: T3, Zinc finger protein mex-5 (Caenorhabditis elegans, UniProt Q9XUB2); assay: potency of MEX-5 RNA-binding blockers – biochemical, C. elegans, fluorescence polarization, dose response (AID 1960)
T3 sequence (Q9XUB2 whole entry): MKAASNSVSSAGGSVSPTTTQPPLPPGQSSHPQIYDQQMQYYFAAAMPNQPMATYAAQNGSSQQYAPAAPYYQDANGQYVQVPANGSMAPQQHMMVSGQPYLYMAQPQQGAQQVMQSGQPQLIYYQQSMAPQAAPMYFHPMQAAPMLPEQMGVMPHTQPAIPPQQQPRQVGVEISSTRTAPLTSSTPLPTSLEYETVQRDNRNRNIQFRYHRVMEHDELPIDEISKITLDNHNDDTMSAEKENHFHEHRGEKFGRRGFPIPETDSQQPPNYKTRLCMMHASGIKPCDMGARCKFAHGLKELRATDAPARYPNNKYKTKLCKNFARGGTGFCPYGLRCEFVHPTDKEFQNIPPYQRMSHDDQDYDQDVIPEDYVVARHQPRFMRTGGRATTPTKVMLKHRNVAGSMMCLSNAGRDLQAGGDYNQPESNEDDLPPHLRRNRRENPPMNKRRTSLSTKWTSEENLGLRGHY

Coagulation factor XII = molecular target: T4, Coagulation factor XII (Homo sapiens, UniProt P00748); format: functional;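 also: activated factor XIIa alpha cleaving a fluorogenic AMC peptide substrate; inhibitor potency from loss of enzyme activity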
T4 sequence (P00748 whole entry): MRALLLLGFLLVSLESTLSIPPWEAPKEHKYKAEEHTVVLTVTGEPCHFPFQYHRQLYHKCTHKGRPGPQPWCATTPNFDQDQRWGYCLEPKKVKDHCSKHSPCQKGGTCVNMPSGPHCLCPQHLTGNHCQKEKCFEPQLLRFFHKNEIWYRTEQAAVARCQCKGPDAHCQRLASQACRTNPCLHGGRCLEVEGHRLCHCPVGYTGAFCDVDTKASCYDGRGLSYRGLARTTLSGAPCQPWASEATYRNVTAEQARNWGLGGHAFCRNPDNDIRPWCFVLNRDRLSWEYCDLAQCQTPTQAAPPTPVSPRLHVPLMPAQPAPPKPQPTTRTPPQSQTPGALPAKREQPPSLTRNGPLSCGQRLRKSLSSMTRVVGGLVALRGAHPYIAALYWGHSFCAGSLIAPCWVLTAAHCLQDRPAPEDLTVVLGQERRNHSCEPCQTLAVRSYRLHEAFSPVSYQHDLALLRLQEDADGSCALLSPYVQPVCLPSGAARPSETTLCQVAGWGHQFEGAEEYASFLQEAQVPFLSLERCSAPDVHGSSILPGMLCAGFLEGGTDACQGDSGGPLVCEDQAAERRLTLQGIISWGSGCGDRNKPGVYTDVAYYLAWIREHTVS

[11] = HIV-1 AD8 envelope cell-cell fusion blockers – cherry-pick, dose response (AID 652062); format: functional, cell-based;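 also: luciferase signal from cell-cell fusion driven by HIV-1 clade B AD8 Env; potency is for inhibitors of fusion seen as a drop in luminescence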
[12] = off-target signal loss in HeLa-CEM21 co-culture – HeLa F-luc CTL cells, cherry-picked, counter-screen for HIV-1 Env fusion inhibitor project, dose response (AID 652040); format: functional, cell-based;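 also: potency for signal decrease marking cytotoxic or nonspecific inhibition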
[13] = molecular target: T5, Heat shock factor protein 1 (Mus musculus, UniProt P38532); assay: enhancement of HSF1-driven luciferase signal – cell-based, NIH3T3, luminescence, dose retest, confirmation (AID 435004); format: functional;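 also: stress induced by proteasome inhibitor MG132 added 30 min after compound; luciferase reporter driven by HSF1 response element in NIH3T3 cells; actives raise luminescence as potentiators of the MG132 stress response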
T5 sequence (P38532 whole entry): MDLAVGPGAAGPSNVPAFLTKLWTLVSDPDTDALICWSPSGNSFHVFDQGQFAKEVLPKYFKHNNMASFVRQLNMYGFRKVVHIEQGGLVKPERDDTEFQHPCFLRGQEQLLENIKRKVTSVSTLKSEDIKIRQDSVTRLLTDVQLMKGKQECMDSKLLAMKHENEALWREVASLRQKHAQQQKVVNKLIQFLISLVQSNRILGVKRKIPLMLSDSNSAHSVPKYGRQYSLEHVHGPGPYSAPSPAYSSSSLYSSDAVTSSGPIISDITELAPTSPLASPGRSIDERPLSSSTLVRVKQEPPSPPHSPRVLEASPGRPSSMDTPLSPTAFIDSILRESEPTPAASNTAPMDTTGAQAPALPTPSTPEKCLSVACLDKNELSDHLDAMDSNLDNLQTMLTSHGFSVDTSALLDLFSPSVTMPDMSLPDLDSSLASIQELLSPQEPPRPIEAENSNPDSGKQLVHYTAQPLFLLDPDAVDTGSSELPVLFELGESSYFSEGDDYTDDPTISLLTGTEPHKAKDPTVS

Large T antigen = Large T antigen (Simian virus 40, UniProt P03070); format: functional, Betapolyomavirus macacae;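 also: Confirmatory-stage PubChem screen for compounds that inhibit SV40 T antigen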
Sequence of Large T antigen (P03070 whole entry): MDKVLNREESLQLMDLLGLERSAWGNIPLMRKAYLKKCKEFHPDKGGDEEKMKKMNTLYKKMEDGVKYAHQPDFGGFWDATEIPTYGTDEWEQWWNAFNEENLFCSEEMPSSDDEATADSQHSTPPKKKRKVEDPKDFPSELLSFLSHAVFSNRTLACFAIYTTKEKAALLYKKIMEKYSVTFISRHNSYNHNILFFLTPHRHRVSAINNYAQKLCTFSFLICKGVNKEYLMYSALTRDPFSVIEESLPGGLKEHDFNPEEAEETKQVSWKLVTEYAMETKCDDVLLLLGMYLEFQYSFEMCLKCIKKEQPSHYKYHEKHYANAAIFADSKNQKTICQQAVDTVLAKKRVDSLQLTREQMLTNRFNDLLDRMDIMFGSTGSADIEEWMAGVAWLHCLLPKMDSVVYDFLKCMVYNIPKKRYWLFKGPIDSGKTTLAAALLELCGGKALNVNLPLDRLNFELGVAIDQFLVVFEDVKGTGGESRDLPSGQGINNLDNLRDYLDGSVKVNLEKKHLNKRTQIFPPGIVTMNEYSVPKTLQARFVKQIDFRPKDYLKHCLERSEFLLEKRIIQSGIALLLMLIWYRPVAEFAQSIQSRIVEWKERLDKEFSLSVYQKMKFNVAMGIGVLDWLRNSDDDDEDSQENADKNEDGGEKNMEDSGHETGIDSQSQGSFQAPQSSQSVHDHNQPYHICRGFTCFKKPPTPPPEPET

[14] = molecular target: T6, Rac GTPase-activating protein 1 (Homo sapiens, UniProt Q9H0H5); assay: blockers of MgcRacGAP-driven Rac1 GTP hydrolysis – biochemical, ADP Hunter fluorescence, primary and confirmatory, confirmation (AID 624330); format: functional
T6 sequence (Q9H0H5 whole entry): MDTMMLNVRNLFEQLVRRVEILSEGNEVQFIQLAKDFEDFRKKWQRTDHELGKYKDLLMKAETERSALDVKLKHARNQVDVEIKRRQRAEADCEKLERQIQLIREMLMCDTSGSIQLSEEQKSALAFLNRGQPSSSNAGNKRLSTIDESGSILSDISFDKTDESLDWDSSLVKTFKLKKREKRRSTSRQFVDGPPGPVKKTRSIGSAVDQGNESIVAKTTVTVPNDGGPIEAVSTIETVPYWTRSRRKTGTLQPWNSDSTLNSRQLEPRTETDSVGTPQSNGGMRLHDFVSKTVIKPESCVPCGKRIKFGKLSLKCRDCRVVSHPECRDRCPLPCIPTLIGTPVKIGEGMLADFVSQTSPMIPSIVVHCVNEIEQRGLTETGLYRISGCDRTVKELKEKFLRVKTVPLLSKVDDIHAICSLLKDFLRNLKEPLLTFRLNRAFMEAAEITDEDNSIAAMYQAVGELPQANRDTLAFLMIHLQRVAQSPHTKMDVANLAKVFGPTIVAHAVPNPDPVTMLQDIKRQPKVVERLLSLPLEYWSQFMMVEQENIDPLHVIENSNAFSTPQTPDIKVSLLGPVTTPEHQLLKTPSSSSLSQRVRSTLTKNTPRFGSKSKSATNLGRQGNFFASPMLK

T1 sequence (P11940 whole entry, the tested form may be a part): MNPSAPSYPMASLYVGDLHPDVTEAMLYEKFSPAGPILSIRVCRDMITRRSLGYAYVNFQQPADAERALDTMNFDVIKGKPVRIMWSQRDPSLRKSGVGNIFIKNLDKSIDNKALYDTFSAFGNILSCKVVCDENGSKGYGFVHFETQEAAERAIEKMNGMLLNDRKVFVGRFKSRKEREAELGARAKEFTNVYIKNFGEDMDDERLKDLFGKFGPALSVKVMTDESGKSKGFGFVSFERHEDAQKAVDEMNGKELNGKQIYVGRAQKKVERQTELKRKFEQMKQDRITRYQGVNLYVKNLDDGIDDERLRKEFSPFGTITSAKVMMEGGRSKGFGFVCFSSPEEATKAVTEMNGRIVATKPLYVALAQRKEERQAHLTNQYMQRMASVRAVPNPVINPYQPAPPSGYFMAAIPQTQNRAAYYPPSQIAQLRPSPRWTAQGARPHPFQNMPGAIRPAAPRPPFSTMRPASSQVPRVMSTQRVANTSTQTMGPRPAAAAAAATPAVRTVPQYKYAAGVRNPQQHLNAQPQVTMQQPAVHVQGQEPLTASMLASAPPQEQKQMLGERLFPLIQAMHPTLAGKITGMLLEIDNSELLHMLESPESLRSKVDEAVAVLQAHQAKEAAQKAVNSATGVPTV

With `CCc1ccc(C(N)=S)cc1` the IC50 [1] was > 66 µM (inactive) and the IC50 [2] was > 66 µM (inactive).

For `C=CCn1c(N)c(C(=O)OCC)sc1=S`, the IC50 [1] was > 66 µM (inactive) and the IC50 [2] was > 66 µM (inactive).

In the case of `CC(C)CCC(C(=O)O)C(C)CC(=O)NNC(=O)c1ccco1` (stereo not given), the AC50 [3] is reported as 19.9 µM (active) and the AC50 [4] is reported as > 70 µM (inactive).

With `Oc1nc(CN2CC=C(c3ccccc3)CC2)nc2cc(C(F)(F)F)ccc12` the EC50 [5] was > 112 µM (not active), the EC50 [6] was > 112 µM (not active) and the AC50 (HEK293) was > 350 µM (inactive).

For `CC12CC3(C)CC(C)(C1)CC(C(=O)NCCc1ccc(S(N)(=O)=O)cc1)(C2)C3`, the EC50 (cells [7]) was > 350 µM (not active) and the EC50 (cells [8]) was > 350 µM (not active).

In the case of `O=C1NC(=O)N(Cc2ccccc2)C(=O)/C1=C/Nc1ccc(CN2CCOCC2)cc1`, the EC50 [9] is reported as > 300 µM (not active) and the EC50 [10] is reported as > 300 µM (not active).

For `O=C(CCC(=O)N/N=C/c1ccc(Br)s1)NCc1ccccc1`, the IC50 (Coagulation factor XII) was > 50 µM (inactive).

For `COc1cc(-c2cc(=O)c3ccc(O)cc3o2)cc(OC)c1OC`, the IC50 [1] was 33.7 µM (inactive) and the IC50 [2] was > 66 µM (inactive).

With `CC(C)N(Cc1ccccc1)C(S)=NC1CCCCC1` the IC50 (Coagulation factor XII) was > 50 µM (inactive).

For `O=C1CC(Nc2ccccc2)C(=O)N1Cc1ccccc1` (stereo not given), the EC50 (cells [7]) was > 350 µM (not active) and the EC50 (cells [8]) was > 350 µM (not active).

With `Cc1cccc(C)c1NC(=O)CCCSc1nnc(-c2ccc(Cl)cc2)n1-c1ccccc1` the AC50 [11] was 10.5 µM (active) and the AC50 [12] was 48.8 µM (active).

In the case of `Cc1sc(NC(=O)CSc2nnnn2C2CCCC2)c(C#N)c1C`, the IC50 (Coagulation factor XII) is reported as > 50 µM (inactive).

In the case of `COCc1cc(O)nc(SCCS(=O)(=O)c2ccc(Cl)cc2Cl)n1`, the IC50 [1] is reported as > 66 µM (inactive), the IC50 [2] is reported as > 66 µM (inactive) and the EC50 [13] is reported as > 260 µM (inactive).

With `COc1ccccc1C(N)=S` the IC50 [1] was > 66 µM (inactive) and the IC50 [2] was > 66 µM (inactive).

With `Cc1ccc2oc(NC(=O)N3CCOCC3)cc(=O)c2c1` the IC50 (Coagulation factor XII) was > 50 µM (inactive).

For `Nc1ncnc2c1ncn2CCN1CCOCC1`, the EC50 (cells [7]) was > 350 µM (not active) and the EC50 (cells [8]) was > 350 µM (not active).

With `COc1ccc(C(=O)Nc2nnc(SCC(=O)NC3CC3)s2)cc1` the AC50 (HEK293) was 4.42 µM (active).

In the case of `CCOC(=O)c1[nH]c2ccccc2c1N=C(S)Nc1cccc(C)c1C`, the IC50 [1] is reported as > 66 µM (inactive), the IC50 [2] is reported as > 66 µM (inactive) and the IC50 (Large T antigen) is reported as 35.1 µM (active). For the same compound, the IC50 [14] was 95.4 µM (active).
